Experimental data taken from patent US20250207131A1, “MODIFIED RNA AGENTS WITH REDUCED OFF-TARGET EFFECT” (Alnylam Pharmaceuticals, Inc., priority 2018, published 2025).

Legend:
[1] = Rat toxicity study, clinical pathology parameters; conditions: rats, single subcutaneous dose 30 mg/kg, cohort average
[2] = rat, in vivo, sc, 30 mg/kg
GO1 (HAO1) = test: In vitro on-target activity, primary mouse hepatocytes, transfection, RT-qPCR (GO1/HAO1 siRNAs); assay type: cell-based; conditions: HAO1 (Seq 1)
Protocol: Cell culture and transfections: Primary Mouse Hepatocytes (Thermo Fisher Scientific/Gibco) were transfected by adding 4.9 μL of Opti-MEM plus 0.1 μL of Lipofectamine RNAiMax per well (Invitrogen, cat #13778-150) to 5 μL of siRNA duplexes per well into a 384-well plate and incubated at room temperature for 15 minutes. 40 μL of Dulbecco's Modified Eagle Medium (Hep3b) or William's Medium (PMH) containing ˜5 ×10^3 cells were then added to the siRNA mixture. Cells were incubated for 24 hours at 37° C. and then processed for RNA purification. Experiments were performed at 10 nM and 0.1 nM doses of siRNA.
Total RNA isolation using DYNABEADS mRNA Isolation Kit: RNA was isolated using an automated protocol on a BioTek-EL406 platform using DYNABEADs (Invitrogen, cat #61012). Briefly, 70 μL of Lysis/Binding Buffer and 10 μL of lysis buffer containing 3 μL of magnetic beads were added to each well. […]
Real time PCR: 2 μL of cDNA were added to a master mix containing 2 μL water, 0.5 μL of either an appropriate GAPDH TaqMan VIC Probe or the target probe and 5 μL Lightcycler 480 probe master mix (Roche, cat #04887301001) per well in a 384 well plate (Roche, cat #04887301001). […] To calculate relative fold change, real time data were analyzed using the ΔΔCt method and normalized to assays performed with cells transfected with a non-targeting control siRNA.

[3] = tested on: luciferase reporter plasmids (psiCHECK2, Renilla luciferase fused to target sequence); test: Off-target Dual-Glo luciferase reporter assay in COS-7 cells; assay type: cell-based; conditions: HAO1 (Seq 1); luciferase reporter plasmids co-transfected with siRNAs into COS-7 cells
Protocol: Dual-Glo® Luciferase assay: Cos7 cells (ATCC, Manassas, VA) were grown to near confluence at 37° C. in an atmosphere of 5% CO2 in DMEM (ATCC) supplemented with 10% FBS, before being released from the plate by trypsinization. siRNA and psiCHCECK2 plasmid transfection was carried out by adding 5 μL of siRNA duplexes and 5 μL of psiCHECK2 plasmid per well along with 5 μL of Opti-MEM plus 0.1 μL of Lipofectamine 2000 per well (Invitrogen, Carlsbad CA. cat #13778-150) and then incubated at room temperature for 15 minutes. The mixture was then added to the cells which were re-suspended in 35 ul of fresh complete media. The transfected cells were incubated at 37° C. in an atmosphere of 5% CO2.
48 hours after the siRNAs and psiCHECK2 plasmid were transfected; Firefly (transfection control) and Renilla (fused to target sequence) luciferase were measured. First, media was removed from cells. Then Firefly luciferase activity was measured by adding 20 μL of Dual-Glo® Luciferase Reagent equal to the culture medium volume to each well and mix. The mixture was incubated at room temperature for 30 minutes before luminescence (500 nm) was measured on a Spectramax (Molecular Devices) to detect the Firefly luciferase signal. Renilla luciferase activity was measured by adding 20 μL of room temperature of Dual-Glo® Stop & Glo® Reagent was added to each well and the plates were incubated for 10-15 minutes before luminescence was again measured to determine the Renilla luciferase signal. The Dual-Glo® Stop & Glo® Reagent, quenches the firefly luciferase signal and sustained luminescence for the Renilla luciferase reaction. siRNA activity was determined by normalizing the Renilla signal to the Firefly (control) signal within each well. The magnitude of siRNA activity was then assessed relative to cells that were transfected with the same vector but were not treated with siRNA or were treated with a non-targeting siRNA. All transfections were done at n=2 or greater.

Parent (AD-65644): GO1 siRNA; passenger g•a•auguGaaAGucaucgacaa(L), guide u•U•gucGaUGacuuUcAcauuc•u•g (sense AUGUGAAAGUCAUCGACAA; antisense GUCGAUGACUUUCACAUUC; phosphorothioate ends, overhangs, chemistry not fully specified)
ALB Avg. [1]: 3.0 g/dL
ALP Avg. [1]: 449 U/L
ALT Avg. [1]: 47 U/L
AST Avg. [1]: 180 U/L
BILI Avg. [1]: 0.52 mg/dL
CA Avg. [1]: 10.3 mg/dL
CHOL Avg. [1]: 74 mg/dL
CREAT Avg. [1]: 0.23 mg/dL
GLDH Avg. [1]: 77.5 U/L
GLOB Avg. [1]: 2.63 g/dL
GLUC Avg. [1]: 113 mg/dL
K Avg. [1]: 4.3 mmol/L
NA Avg. [1]: 140 mmol/L
PHOS Avg. [1]: 8.8 mg/dL
PROT Avg. [1]: 6 g/dL
TRIG Avg. [1]: 138 mg/dL
UREAN Avg. [1]: 16.8 mg/dL
A/G Avg. [2]: 1.1
On-Target mRNA remaining (%) 0.1 nM siRNA (GO1 (HAO1); 0.1 nM siRNA): 96.1%
On-Target mRNA remaining (%) 10 nM siRNA (GO1 (HAO1); 10 nM siRNA): 27.7%
IC50 [3]: 0.53 nM
